Experimental data as given in patent US7632783B2 (priority 2004, dated 2009).

What follows are compounds tested on rice blast (Pyricularia oryzae). Conditions: potted rice (variety Karakaze), spraying liquid 300 ppm after spore inoculation, observed 7 days after inoculation, levels 0 to 3.
Format: in vivo

Compound | degree of disease onset
c1ccc2c(c1)C(c1cnc3ccccc3c1)=NCC21CCC1 [Example 171, 1′-quinolin-3-yl-4′H-spiro[cyclobutane-1,4′-isoquinoline]] | 0
CC1c2ccccc2C(c2cnc3ccccc3c2)=[N+]([O-])C1(C)C (stereo not drawn) [Example 206, 3-(3,3,4-trimethyl-2-oxide-3,4-dihydroisoquinolin-1-yl)quinoline] | 0
c1ccc2c(c1)CC1(CCCC1)N=C2c1cnc2ccccc2c1 [Example 80, 1′-quinolin-3-yl-4′H-spiro[cyclopentane-1,3′-isoquinoline]] | 0
CC1(C)Cc2c(cccc2-c2cccs2)C(c2cnc3ccccc3c2)=N1 [Example 32, 3-[5-(2-thienyl)-3,3-dimethyl-3,4-dihydroisoquinolin-1-yl]quinoline] | 0
5-fluoro-3,3,4,4-tetramethyl-8b-(1-oxidequinoline-3-yl)-4,8b-dihydro-3H-oxazileno[3,2-a]isoquinoline [Example 198] | 0
CC1(C)Cc2c(F)cccc2C(c2cnc3ccccc3c2)=N1.O=S(=O)(O)O [Example 104, 3-(5-fluoro-3,3-dimethyl-3,4-dihydroisoquinolin-1-yl)quinoline sulfate] | 0
Cc1cccc2cc(C3=NC(C)(C)Cc4ccccc43)cnc12 [Example 9, 3-(3,3-dimethyl-3,4-dihydroisoquinolin-1-yl)-8-methylquinoline] | 0
CC1(C)Cc2c(F)cccc2C(c2cnc3ccccc3c2)=N1.O=[N+]([O-])O [Example 105, 3-(5-fluoro-3,3-dimethyl-3,4-dihydroisoquinolin-1-yl)quinoline nitrate] | 0
Fc1cccc2c1CC1(CCCC1)N=C2c1cnc2ccccc2c1 [Example 81, 5′-fluoro-1′-quinolin-3-yl-4′H-spiro[cyclopentane-1,3′-isoquinoline]] | 0
CC1(C)Cc2c(F)cccc2C(c2cnc3ccccc3c2)=N1.O=C(O)C(=O)O [Example 106, 3-(5-fluoro-3,3-dimethyl-3,4-dihydroisoquinolin-1-yl)quinoline oxalate] | 0
CC1(C)Cc2ccccc2C(c2cnc3ccccc3c2)=N1 [Example 6, 3-(3,3-dimethyl-3,4-dihydroisoquinolin-1-yl)quinoline] | 0
CC1(C)c2ccc(F)cc2C(c2cnc3ccccc3c2)=[N+]([O-])C1(C)C [Example 210, 3-(7-fluoro-3,3,4,4-tetramethyl-2-oxide-3,4-dihydroisoquinolin-1-yl)quinoline] | 0
CON=C(C)c1cccc2c1CC(C)(C)N=C2c1cnc2ccccc2c1 [Example 36, 1-(3,3-dimethyl-1-quinolin-3-yl-3,4-dihydroisoquinolin-5-yl)ethanone=O-methyloxime] | 0
CCC1(CC)Cc2ccccc2C(c2cnc3ccccc3c2)=N1 [Example 63, 3-(3,3-diethyl-3,4-dihydroisoquinolin-1-yl)quinoline] | 0
CC1CCC2(Cc3ccccc3C(c3cnc4ccccc4c3)=N2)C1 (stereo not drawn) [Example 101, 1′-quinolin-3-yl-4′H-spiro[(3-methylcyclopentane)-1,3′-isoquinoline]] | 0
CC1(C)N=C(c2cnc3ccccc3c2)c2cccc(F)c2C1(C)O (stereo not drawn) [Example 181, 3-(5-fluoro-4-hydroxy-3,3,4-trimethyl-3,4-dihydroisoquinolin-1-yl)quinoline] | 0
Cc1cccc2c1CC(C)(C)N=C2c1cnc2ccccc2c1 [Example 26, 3-(3,3,5-trimethyl-3,4-dihydroisoquinolin-1-yl)quinoline] | 0
CC1(C)N=C(c2cnc3ccccc3c2)c2ccc(F)cc2C1(C)C [Example 150, 3-(6-fluoro-3,3,4,4-tetramethyl-3,4-dihydroisoquinolin-1-yl)quinoline] | 0
